Measured values published in US7414072B2, “Aryl 5-thio-β-d-glucopyranoside derivatives and therapeutic agents for diabetes containing the same” (Taisho Pharmaceutical Co., Ltd., priority 2002, dated 2008).

First: OC[C@H]1S[C@@H](Oc2ccc(Cl)cc2Cc2cc(F)cc(C(F)(F)F)c2)[C@H](O)[C@@H](O)[C@@H]1O [Compound 76, 4′-chloro-2′-(3′-fluoro-5′-trifluoromethylbenzyl)phenyl 5-thio-β-D-glucopyranoside]
Second: OC[C@H]1S[C@@H](Oc2ccc(Cl)cc2Cc2cccc(F)c2)[C@H](O)[C@@H](O)[C@@H]1O [Compound 61, 4′-chloro-2′-(3′-fluorobenzyl)phenyl 5-thio-β-D-glucopyranoside]
The melting point of the first is lower: 126 to 129 °C for the first, 182 to 183 °C for the second.

First: Cc1ccc(Cc2ccccc2O[C@@H]2S[C@H](CO)[C@@H](O)[C@H](O)[C@H]2O)cc1 [Compound 3, 2′-(4′-methylbenzyl)phenyl 5-thio-β-D-glucopyranoside]
Second: COc1ccc(Cc2ccccc2O[C@@H]2S[C@H](CO)[C@@H](O)[C@H](O)[C@H]2O)cc1 [Compound 4, 2′-(4′-methoxybenzyl)phenyl 5-thio-β-D-glucopyranoside]
The melting point of the first is higher: 184 to 186 °C for the first, 166 to 167.5 °C for the second.

First: CCc1ccc(Cc2cc(Cl)ccc2O[C@@H]2S[C@H](CO)[C@@H](O)[C@H](O)[C@H]2O)cc1 [Compound 2, 4′-chloro-2′-(4′-ethylbenzyl)phenyl 5-thio-β-D-glucopyranoside]
Second: CCCCc1ccc(Cc2cc(Cl)ccc2O[C@@H]2S[C@H](CO)[C@@H](O)[C@H](O)[C@H]2O)cc1 [Compound 46, 2′-(4′-butylbenzyl)-4′-chlorophenyl 5-thio-β-D-glucopyranoside]
The melting point of the first is higher: 173.5 to 177.5 °C for the first, 165 to 168 °C for the second.

Compared with `Cc1csc(Cc2ccccc2O[C@@H]2S[C@H](CO)[C@@H](O)[C@H](O)[C@H]2O)n1` [Compound 37], `CCn1cc(Cc2ccccc2O[C@@H]2S[C@H](CO)[C@@H](O)[C@H](O)[C@H]2O)cn1` [Compound 54] is lower in melting point: 197 to 200 °C for the first, 175 to 177.5 °C for the second.

First: OC[C@H]1S[C@@H](Oc2ccc(Cl)cc2Cc2cccc(Oc3ccccc3)c2)[C@H](O)[C@@H](O)[C@@H]1O [Compound 62]
Second: OC[C@H]1S[C@@H](Oc2ccc(Cl)cc2Cc2ccccc2Cc2ccccc2)[C@H](O)[C@@H](O)[C@@H]1O [Compound 79]
The melting point of the first is lower: 124.5 to 127 °C for the first, 150.5 to 151.5 °C for the second.

Compared with `CCOc1ccc(Cc2ccccc2O[C@@H]2S[C@H](CO)[C@@H](O)[C@H](O)[C@H]2O)cc1` [Compound 5, 2′-(4′-ethoxybenzyl)phenyl 5-thio-β-D-glucopyranoside], `CCCCOc1ccc(Cc2cc(Cl)ccc2O[C@@H]2S[C@H](CO)[C@@H](O)[C@H](O)[C@H]2O)cc1` [Compound 45, 2′-(4′-butoxybenzyl)-4′-chlorophenyl 5-thio-β-D-glucopyranoside] is lower in melting point: 182 to 183.5 °C for the first, 166 to 169 °C for the second.

First: CCc1ccccc1Cc1ccccc1O[C@@H]1S[C@H](CO)[C@@H](O)[C@H](O)[C@H]1O [Compound 58]
Second: OC[C@H]1S[C@@H](Oc2ccccc2Cc2ccccc2)[C@H](O)[C@@H](O)[C@@H]1O [Compound 11, 2′-benzylphenyl 5-thio-β-D-glucopyranoside]
The melting point of the first is lower: 96 to 101 °C for the first, 171 to 174 °C for the second.

First: OC[C@H]1S[C@@H](Oc2ccc(Cl)cc2Cc2ccc(F)cc2F)[C@H](O)[C@@H](O)[C@@H]1O [Compound 60, 4′-chloro-2′-(2′,4′-difluorobenzyl)phenyl 5-thio-β-D-glucopyranoside]
Second: Cc1ccccc1Cc1cc(Cl)ccc1O[C@@H]1S[C@H](CO)[C@@H](O)[C@H](O)[C@H]1O [Compound 82, 4′-chloro-2′-(2′-methylbenzyl)phenyl 5-thio-β-D-glucopyranoside]
The melting point of the first is higher: 175.5 to 177 °C for the first, 147 to 149 °C for the second.

First: OC[C@H]1S[C@@H](Oc2ccccc2Cc2ccc(N3CCCCC3)cc2)[C@H](O)[C@@H](O)[C@@H]1O [Compound 74, 2′-(4′-piperidinobenzyl)phenyl 5-thio-β-D-glucopyranoside]
Second: OC[C@H]1S[C@@H](Oc2ccccc2Cc2ccc(N3CCOCC3)cc2)[C@H](O)[C@@H](O)[C@@H]1O [Compound 73, 2′-(4′-morpholinobenzyl)phenyl 5-thio-β-D-glucopyranoside]
The melting point of the first is lower: 156.5 to 160 °C for the first, 174 to 176.5 °C for the second.

First: CC(C)(C)c1ccc(Cc2cc(Cl)ccc2O[C@@H]2S[C@H](CO)[C@@H](O)[C@H](O)[C@H]2O)cc1 [Compound 75, 2′-(4′-t-butylbenzyl)-4′-chlorophenyl 5-thio-β-D-glucopyranoside]
Second: CN(C)c1ccc(Cc2cc(Cl)ccc2O[C@@H]2S[C@H](CO)[C@@H](O)[C@H](O)[C@H]2O)cc1 [Compound 52, 4′-chloro-2′-(4′-N,N-dimethylaminobenzyl)phenyl 5-thio-β-D-glucopyranoside]
The melting point of the first is lower: 79 to 82.5 °C for the first, 183 to 184 °C for the second.

First: CCc1ccc(Cc2cc(C(=O)O)ccc2O[C@@H]2S[C@H](CO)[C@@H](O)[C@H](O)[C@H]2O)cc1 [Compound 16, 4′-carboxy-2′-(4′-ethylbenzyl)phenyl 5-thio-β-D-glucopyranoside]
Second: CCc1ccc(Cc2cc(C(=O)OC)ccc2O[C@@H]2S[C@H](CO)[C@@H](O)[C@H](O)[C@H]2O)cc1 [Compound 15, 2′-(4′-ethylbenzyl)-4′-methoxycarbonylphenyl 5-thio-β-D-glucopyranoside]
The melting point of the first is higher: 219 to 220.5 °C for the first, 196 to 198 °C for the second.

Compared with `CCc1ccc(Cc2cc(F)ccc2O[C@@H]2S[C@H](CO)[C@@H](O)[C@H](O)[C@H]2O)cc1` [Compound 8, 2′-(4′-ethylbenzyl)-4′-fluorophenyl 5-thio-β-D-glucopyranoside], `CCc1ccc(Cc2ccc(O)cc2O[C@@H]2S[C@H](CO)[C@@H](O)[C@H](O)[C@H]2O)cc1` [Compound 21, 2′-(4′-ethylbenzyl)-5′-hydroxyphenyl 5-thio-β-D-glucopyranoside] is higher in melting point: 163 to 165.5 °C for the first, 172 to 173.5 °C for the second.

First: CCc1ccc(Cc2c(O)cccc2O[C@@H]2S[C@H](CO)[C@@H](O)[C@H](O)[C@H]2O)cc1 [Compound 14, 2′-(4′-ethylbenzyl)-3′-hydroxyphenyl 5-thio-β-D-glucopyranoside]
Second: CCc1ccc(Cc2cc(Cl)cc(Cl)c2O[C@@H]2S[C@H](CO)[C@@H](O)[C@H](O)[C@H]2O)cc1 [Compound 31, 4′,6′-dichloro-2′-(4′-ethylbenzyl)phenyl 5-thio-β-D-glucopyranoside]
The melting point of the first is higher: 238 to 242.5 °C for the first, 72 to 80 °C for the second.

Compared with `Cc1ccc(Sc2ccccc2O[C@@H]2S[C@H](CO)[C@@H](O)[C@H](O)[C@H]2O)cc1` [Compound 38], `Cc1ccc(Nc2ccccc2O[C@@H]2S[C@H](CO)[C@@H](O)[C@H](O)[C@H]2O)cc1` [Compound 34, 2′-(p-Toluidino)phenyl 5-thio-β-D-glucopyranoside] is higher in melting point: 140 to 142 °C for the first, 152 to 153 °C for the second.

First: CCOc1ccccc1Cc1cc(Cl)ccc1O[C@@H]1S[C@H](CO)[C@@H](O)[C@H](O)[C@H]1O [Compound 81, 4′-chloro-2′-(2′-ethoxybenzyl)phenyl 5-thio-β-D-glucopyranoside]
Second: OC[C@H]1S[C@@H](Oc2ccc(Cl)cc2Cc2ccccc2CCc2ccccc2)[C@H](O)[C@@H](O)[C@@H]1O [Compound 78]
The melting point of the first is higher: 196.5 to 198.5 °C for the first, 128 to 130 °C for the second.

First: OC[C@H]1S[C@@H](Oc2ccccc2Cc2ccc(-n3cccn3)cc2)[C@H](O)[C@@H](O)[C@@H]1O [Compound 43, 2′-(4′-pyrazol-1′-ylbenzyl)phenyl 5-thio-β-D-glucopyranoside]
Second: COc1cc(OC)c(Cc2ccccc2O[C@@H]2S[C@H](CO)[C@@H](O)[C@H](O)[C@H]2O)c(OC)c1 [Compound 65, 2′-(2′,4′,6′-trimethoxybenzyl)phenyl 5-thio-β-D-glucopyranoside]
The melting point of the first is higher: 208 to 210 °C for the first, 100 to 105 °C for the second.
